According to patent publication US20180243289A1, “[…] COMPOUNDS FOR TREATING AGITATION” (Concert Pharmaceuticals, Inc., priority 2015, published 2018):
Structures can show the parent of a compound that is named as a salt.

What was measured:
CYP2D6 = target: T1, CYP2D6 (Homo sapiens, UniProt P10635); assay: Metabolic stability in CYP2D6 SUPERSOMES; format: in vitro ADME; settings: recombinant CYP2D6 SUPERSOMES, 50 pmol/mL CYP2D6 SUPERSOMES, 1 μM test compound, 2 mM NADPH, pH 7.4, 37° C., 0-30 min, read-out: t1/2 ± SD, calculated half-life in SUPERSOMES
T1 construct: purchased GenTest (Woburn, Mass., USA)
Procedure: Human CYP2D6 SUPERSOMES™ were purchased from GenTest (Woburn, Mass., USA). 7.5 mM stock solutions of test compounds (Compounds 100, 102, and the ethyl ether analog of dextromethorphan (“dextroethorphan”) were prepared in DMSO. The 7.5 mM stock solutions were diluted to 50 μM in acetonitrile (ACN). The 1000 pmol/mL CYP2D6 supersomes were diluted to 62.5 pmol/mL in 0.1 M potassium phosphate buffer, pH 7.4, containing 3 mM MgCl2. The diluted SUPERSOMES™ were added to wells of a 96-well deep-well polypropylene plate in triplicate. 10 μL of the 50 μM test compound was added to the supersomes and the mixture was pre-warmed for 10 minutes. Reactions were initiated by addition of pre-warmed NADPH solution. The final reaction volume was 0.5 mL and contained 50 pmol/mL CYP2D6 SUPERSOMES™, 1 μM test compound, and 2 mM NADPH in 0.1 M potassium phosphate buffer, pH 7.4, and 3 mM MgCl2. The reaction mixtures were incubated at 37° C. and 50 μL aliquots were removed at 0, 5, 10, 20, and 30 minutes and added to shallow-well 96-well plates which contained 50 μL of ice-cold ACN with internal standard to stop the reactions. The plates were stored at 4° C. for 20 minutes after which 100 μL of water was added to the wells of the plate before centrifugation to pellet precipitated proteins. Supernatants were transferred to another 96-well plate and analyzed for amounts of parent remaining by LC-MS/MS using an Applied Bio-systems API 4000 mass spectrometer.
The in vitro half-life (t1/2) for each of the test compounds was calculated from the slopes of the linear regression of % parent remaining (ln) vs incubation time relationship: in vitro t1/2=0.693/k, where k=−[slope of linear regression of % parent remaining (ln) vs incubation time]. Data analysis was performed using Microsoft Excel Software.

[1] = Metabolic stability using human liver microsomes; format: in vitro ADME; settings: for half-life at 1 μM / Change over non-deuterated compound (Table 3): Table 3 experiment; for half-life at 1 μM: read-out: t1/2 ± SD, calculated half-life in human liver microsomes (Table 3); for Change over non-deuterated compound (Table 3): change of half-life in human liver microsomes vs dextroethorphan
Procedure: Human liver microsomes (20 mg/mL) were obtained from Xenotech, LLC (Lenexa, Kans.). β-nicotinamide adenine dinucleotide phosphate, reduced form (NADPH), magnesium chloride (MgCl2), and dimethyl sulfoxide (DMSO) were purchased from Sigma-Aldrich.
7.5 mM stock solutions of test compounds were prepared in DMSO. The 7.5 mM stock solutions were diluted to 50 μM in acetonitrile (ACN). The 20 mg/mL human liver microsomes were diluted to 1.25 mg/mL (1 mg/mL final) in 0.1 M potassium phosphate buffer, pH 7.4, containing 3 mM MgCl2. The diluted microsomes (375 μL) were added to wells of a 96-well polypropylene plate in triplicate. 10 μL of the 50 μM test compound was added to the microsomes and the mixture was pre-warmed for 10 minutes. Reactions were initiated by addition of 125 μL of pre-warmed NADPH solution. The final reaction volume was 0.5 mL and contained 1.0 mg/mL human liver microsomes, 1 μM test compound, and 2 mM NADPH in 0.1 M potassium phosphate buffer, pH 7.4, and 3 mM MgCl2. The reaction mixtures were incubated at 37° C., and 50 μL aliquots were removed at 0, 5, 10, 20, and 30 minutes and added to shallow 96-well plates which contained 50 μL of ice-cold ACN with internal standard to stop the reactions. The plates were stored at 4° C. for 20 minutes after which 100 μL of water was added to the wells of the plate before centrifugation to pellet precipitated proteins. Supernatants were transferred to another 96-well plate and analyzed for amounts of parent remaining by LC-MS/MS using an Applied Bio-systems API 4000 mass spectrometer. 7-ethoxy coumarin was used as a positive control.
The in vitro t1/2s for test compounds were calculated from the slopes of the linear regression of % parent remaining (ln) vs incubation time relationship:
in vitro t1/2=0.693/k, where k=−[slope of linear regression of % parent remaining(ln) vs incubation time]
Data analysis was performed using Microsoft Excel Software.

[2] = 1.0 mg/mL human liver microsomes, 1 μM test compound, 2 mM NADPH, pH 7.4, 37° C.

T1 sequence (P10635 whole entry): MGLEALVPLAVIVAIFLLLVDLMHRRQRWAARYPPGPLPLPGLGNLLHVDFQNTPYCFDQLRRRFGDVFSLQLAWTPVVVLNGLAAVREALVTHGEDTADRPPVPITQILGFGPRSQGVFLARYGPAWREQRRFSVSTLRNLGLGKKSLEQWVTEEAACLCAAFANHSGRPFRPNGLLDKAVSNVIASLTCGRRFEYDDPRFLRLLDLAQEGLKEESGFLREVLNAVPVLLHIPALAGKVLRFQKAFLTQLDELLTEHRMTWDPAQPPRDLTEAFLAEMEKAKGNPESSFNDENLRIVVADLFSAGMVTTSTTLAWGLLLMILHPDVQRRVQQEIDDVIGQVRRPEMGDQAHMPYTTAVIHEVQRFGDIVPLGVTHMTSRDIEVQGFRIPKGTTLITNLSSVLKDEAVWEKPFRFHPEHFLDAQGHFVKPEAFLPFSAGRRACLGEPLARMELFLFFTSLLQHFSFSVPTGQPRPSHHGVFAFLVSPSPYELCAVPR

SMILES | half-life at 1 μM (CYP2D6) | half-life at 1 μM [1, 2] | t1/2 ± SD, calculated half-life in human liver microsomes (Table 4) ([1]; 1.0 mg/mL human liver microsomes, 1 μM test compound, 2 mM NADPH, pH 7.4, 37° C., Table 4 experiment) | Change over non-deuterated compound (Table 3) [1]
CCOc1ccc2c(c1)[C@@]13CCCC[C@H]1[C@@H](C2)N(C)CC3 [Dextroethorphan, (+)-3-ethoxy-17-methylmorphinan, reference compound] | 10.3 ± 2.1 min | 28.3 ± 0.6 min | 37.1 ± 5.6 min | –
[2H]C([2H])([2H])C([2H])([2H])Oc1ccc2c(c1)[C@]13CCCC[C@@H]1[C@H](C2)N(C)CC3 [Compound 104, (+)-3-(Ethoxy-d5)-17-methyl-(9α,13α,14α)-morphinan hydrochloride] | 49.1 ± 4.1 min | 59.1 ± 2.2 min | – | 109%
[2H]C([2H])([2H])N1CC[C@@]23CCCC[C@@H]2[C@@H]1Cc1ccc(OC([2H])([2H])C([2H])([2H])[2H])cc13 [Compound 100, (+)-3-(Ethoxy-d5)-17-(methyl-d3)-(9α,13α,14α)-morphinan hydrochloride] | 51.3 ± 3.7 min | 59.2 ± 1.7 min | – | 109%
COc1ccc2c(c1)[C@]13CCCC[C@@H]1[C@H](C2)N(C)CC3 [Dextromethorphan, (+)-3-methoxy-17-methyl-(9α,13α,14α)-morphinan, reference compound] | 1.7 ± 0.3 min | – | – | –
